Experimental data taken from paper PMC11288027, “Exploring novel microbial metabolites and drugs for inhibiting Clostridioides difficile” (mSphere, 2024).
≈ marks a conversion by molar mass, not a printed value. Where two headings read alike, the source gives them in different places.

Experiments:
[1] = tested on: E. faecium; test: MIC against human gut microbiota; type: cell-based, Enterococcus faecium; conditions: Enterococcus faecium; E. faecium HM-202, TSB, aerobic; read-out: minimum inhibitory concentration (MIC)
[2] = tested on: E. fecalis; test: MIC against human gut microbiota; type: cell-based, Enterococcus faecalis; conditions: Enterococcus faecalis; E. fecalis HM-970, TSB, aerobic; read-out: minimum inhibitory concentration (MIC)
[3] = tested on: C. difficile ATCC BAA-1870; test: MIC of active hits by broth microdilution; conditions: C. difficile ATCC BAA-1870, 48 h anaerobic; for MIC: Clostridioides difficile, ATCCBAA1870, 48 h
[4] = tested on: Bif. breve; test: MIC against human gut microbiota; type: cell-based, Bifidobacterium breve; conditions: Bifidobacterium breve, ATCC15700; Bif. breve ATCC 15700, BHIS broth, anaerobic; read-out: minimum inhibitory concentration (MIC)
[5] = tested on: monkey kidney epithelial (Vero) cells; test: Cytotoxicity assessment against Vero cells (MTS); conditions: Vero IC50 relative to MIC90 of C. difficile panel
[6] = Cytotoxicity assessment against Vero cells (MTS); conditions: monkey, Vero cells (monkey kidney epithelial cells)
[7] = tested on: L. casei; test: MIC against human gut microbiota; type: cell-based; conditions: Lacticaseibacillus casei, ATCC334; L. casei ATCC 334, MRS broth, 5% CO2; read-out: minimum inhibitory concentration (MIC)
[8] = tested on: L. brevis; test: MIC against human gut microbiota; type: cell-based, Lactobacillus brevis; conditions: Levilactobacillus brevis, ATCC14864; L. brevis ATCC-14864, MRS broth, 5% CO2; read-out: minimum inhibitory concentration (MIC)
[9] = tested on: B. dorei; test: MIC against human gut microbiota; type: cell-based, Bacteroides dorei; conditions: Phocaeicola dorei; B. dorei HM- 719, BHIS broth, anaerobic; read-out: minimum inhibitory concentration (MIC)
[10] = tested on: Bif. angulatum; test: MIC against human gut microbiota; type: cell-based, Bifidobacterium angulatum; conditions: Bifidobacterium angulatum; Bif. angulatum HM- 1189, BHIS broth, anaerobic; read-out: minimum inhibitory concentration (MIC)
[11] = tested on: Bif. longum; test: MIC against human gut microbiota; type: cell-based, Bifidobacterium longum; conditions: Bifidobacterium longum, anaerobic, read-out: minimum inhibitory concentration (MIC)
[12] = tested on: Bif. adolescentis; test: MIC against human gut microbiota; type: cell-based, Bifidobacterium adolescentis; conditions: Bifidobacterium adolescentis; Bif. adolescentis HM- 633, BHIS broth, anaerobic; read-out: minimum inhibitory concentration (MIC)
[13] = tested on: B. fragilis; test: MIC against human gut microbiota; type: cell-based, Bacteroides fragilis; conditions: Bacteroides fragilis, anaerobic, read-out: minimum inhibitory concentration (MIC)
[14] = tested on: C. difficile clinical isolates; test: MIC against a panel of 20 C. difficile clinical isolates (broth microdilution); type: cell-based, Clostridioides difficile; conditions: Clostridioides difficile; for MIC50: concentration that inhibited 50% of the 20 C. difficile clinical isolates
[15] = tested on: L. rhamanosus; test: MIC against human gut microbiota; type: cell-based, Lactobacillus rhamnoosus; conditions: Lactobacillus, ATCC53103; L. rhamanosus ATCC-53103, MRS broth, 5% CO2; read-out: minimum inhibitory concentration (MIC)
[16] = tested on: Mycobacterium tuberculosis; design: method as in earlier work; conditions: read-out: half-maximal inhibitory concentration [IC50]; cited from earlier work
[17] = tested on: Escherichia coli; design: method as in earlier work; conditions: cited from earlier work
[18] = tested on: methicillin-resistant S. aureus (MRSA); design: method as in earlier work; conditions: cited from earlier work
[19] = tested on: C. difficile ATCC BAA-1870; test: Time-kill assay at 5 × MIC; conditions: C. difficile ATCC BAA-1870, ~10^6 CFU/mL, up to 24 h
[20] = tested on: enterococcal species; test: MIC against human gut microbiota, summary in text; type: cell-based; conditions: summary over the Enterococcus strains of Table 4
[21] = in vitro; conditions: monkey
[22] = tested on: Bacillus subtilis; design: method as in earlier work; conditions: cited from earlier work
[23] = Bif. longum HM- 845, BHIS broth
[24] = Bif. longum HM- 846, BHIS broth
[25] = Bif. longum HM- 847, BHIS broth
[26] = Bif. longum HM- 848, BHIS broth
[27] = B. fragilis HM- 709, BHIS broth
[28] = B. fragilis HM- 718, BHIS broth

COC(=O)N/N=C/c1c[n+]([O-])c2ccccc2[n+]1[O-] [Carbadox]
MIC [1]: 128 µg/mL (≈ 488 µM) | MIC [2]: 128 µg/mL (≈ 488 µM) | MIC (μM) [3]: 4 µM | MIC [3]: 1.05 µg/mL | MIC [4]: 16 µg/mL (≈ 61 µM) | safety index: Vero IC50 as times the MIC90 against strains of C. difficile [5]: > 64 times | IC50 at 24 h [6]: > 128 µg/mL | MIC [7]: 128 µg/mL (≈ 488 µM) | MIC [8]: 32 µg/mL (≈ 122 µM) | MIC [9]: 2 µg/mL (≈ 7.63 µM) | MIC [10]: 4 µg/mL (≈ 15.3 µM) | MIC [11, 23]: 4 µg/mL (≈ 15.3 µM) | MIC [11, 24]: 8 µg/mL (≈ 30.5 µM) | MIC [11, 25]: 16 µg/mL (≈ 61 µM) | MIC [11, 26]: 4 µg/mL (≈ 15.3 µM) | MIC [12]: 4 µg/mL (≈ 15.3 µM) | MIC [13, 27]: 2 µg/mL (≈ 7.63 µM) | MIC [13, 28]: 2 µg/mL (≈ 7.63 µM) | MIC50 ([14]; 48 h, read-out: MIC50): 1 µg/mL (≈ 3.81 µM) | MIC ([14]; ATCC630, C. difficile ATCC 630, read-out: minimum inhibitory concentration (MIC)): 1 µg/mL (≈ 3.81 µM) | MIC ([14]; ATCC43255, C. difficile ATCC 43255, read-out: minimum inhibitory concentration (MIC)): 1 µg/mL (≈ 3.81 µM) | MIC ([14]; ATCCBAA1870, C. difficile ATCC BAA-1870 (Ribotype-027), purchased compounds, panel test, read-out: minimum inhibitory concentration (MIC)): 2 µg/mL (≈ 7.63 µM) | MIC ([14]; C. difficile CD-1 (Ribotype-027), read-out: minimum inhibitory concentration (MIC)): 2 µg/mL (≈ 7.63 µM) | MIC ([14]; C. difficile CD-6 (Ribotype-027), read-out: minimum inhibitory concentration (MIC)): 0.5 µg/mL (≈ 1.91 µM) | MIC ([14]; C. difficile CD-10(Ribotype-027), read-out: minimum inhibitory concentration (MIC)): 2 µg/mL (≈ 7.63 µM) | MIC ([14]; C. difficile CD-12, read-out: minimum inhibitory concentration (MIC)): 2 µg/mL (≈ 7.63 µM) | MIC ([14]; C. difficile CD-13, read-out: minimum inhibitory concentration (MIC)): 1 µg/mL (≈ 3.81 µM) | MIC ([14]; C. difficile CD-15, read-out: minimum inhibitory concentration (MIC)): 1 µg/mL (≈ 3.81 µM) | MIC ([14]; C. difficile CD-22, read-out: minimum inhibitory concentration (MIC)): 2 µg/mL (≈ 7.63 µM) | MIC ([14]; C. difficile CD-23, read-out: minimum inhibitory concentration (MIC)): 2 µg/mL (≈ 7.63 µM) | MIC ([14]; C. difficile CD-24, read-out: minimum inhibitory concentration (MIC)): 1 µg/mL (≈ 3.81 µM) | MIC ([14]; C. difficile CD-26 (Ribotype-027), read-out: minimum inhibitory concentration (MIC)): 2 µg/mL (≈ 7.63 µM) | MIC ([14]; C. difficile CD-28, read-out: minimum inhibitory concentration (MIC)): 2 µg/mL (≈ 7.63 µM) | MIC ([14]; C. difficile CD-29 (Ribotype-027), read-out: minimum inhibitory concentration (MIC)): 0.5 µg/mL (≈ 1.91 µM) | MIC ([14]; C. difficile CD-30, read-out: minimum inhibitory concentration (MIC)): 2 µg/mL (≈ 7.63 µM) | MIC ([14]; C. difficile NR-49302, read-out: minimum inhibitory concentration (MIC)): 2 µg/mL (≈ 7.63 µM) | MIC ([14]; C. difficile NR-49304, read-out: minimum inhibitory concentration (MIC)): 1 µg/mL (≈ 3.81 µM) | MIC ([14]; C. difficile NR-49308, read-out: minimum inhibitory concentration (MIC)): 1 µg/mL (≈ 3.81 µM) | MIC ([14]; C. difficile NR-49319, read-out: minimum inhibitory concentration (MIC)): 0.5 µg/mL (≈ 1.91 µM) | MIC50 ([14]; read-out: MIC50): 1 µg/mL (≈ 3.81 µM) | MIC90 ([14]; concentration that inhibited 90% of the 20 C. difficile clinical isolates, read-out: MIC90): 2 µg/mL (≈ 7.63 µM) | MIC [15]: > 256 µg/mL

COc1cc2c(cc1O)CCN[C@]21CS[C@@H]2c3c(OC(C)=O)c(C)c4c(c3[C@H](COC1=O)N1[C@@H]2[C@H]2c3c(cc(C)c(OC)c3O)C[C@@H]([C@@H]1C#N)N2C)OCO4 [ET-770, ecteinascidin 770]
MIC [1]: ≤ 2 µg/mL | MIC [2]: ≤ 2 µg/mL | IC50 [16]: 130 nM | MIC [17]: 32.43 µM (≈ 25 µg/mL) | MIC [3]: ≤ 0.19 µg/mL | MIC [18]: 2.02 µM (≈ 1.56 µg/mL) | time to eliminate / clear C. difficile [19]: 6 h | MIC [4]: ≤ 2 µg/mL | safety index: Vero IC50 as times the MIC90 against strains of C. difficile [5]: more than 1024 times | MIC [7]: ≤ 2 µg/mL | MIC [8]: ≤ 2 µg/mL | MIC [9]: ≤ 2 µg/mL | MIC [10]: ≤ 2 µg/mL | MIC [20]: ≤ 2 µg/mL | MIC [11, 23]: ≤ 2 µg/mL | MIC [11, 24]: ≤ 2 µg/mL | MIC [11, 25]: ≤ 2 µg/mL | MIC [11, 26]: ≤ 2 µg/mL | IC50 at 24 h [21]: > 128 µg/mL | MIC [12]: ≤ 2 µg/mL | MIC [13, 27]: ≤ 2 µg/mL | MIC [13, 28]: ≤ 2 µg/mL | MIC [22]: 1.01 µM (≈ 0.779 µg/mL) | MIC90 [14]: 0.125 µg/mL (≈ 0.162 µM) | MIC50 ([14]; 48 h): ≤ 0.06 µg/mL | MIC ([14]; ATCC630, read-out: minimum inhibitory concentration (MIC), C. difficile ATCC 630): 0.03 µg/mL (≈ 0.0389 µM) | MIC ([14]; ATCC43255, read-out: minimum inhibitory concentration (MIC), C. difficile ATCC 43255): 0.06 µg/mL (≈ 0.0778 µM) | MIC ([14]; ATCCBAA1870, read-out: minimum inhibitory concentration (MIC), C. difficile ATCC BAA-1870 (Ribotype-027), purchased compounds, panel test): 0.125 µg/mL (≈ 0.162 µM) | MIC ([14]; read-out: minimum inhibitory concentration (MIC), C. difficile CD-1 (Ribotype-027)): 0.125 µg/mL (≈ 0.162 µM) | MIC ([14]; read-out: minimum inhibitory concentration (MIC), C. difficile CD-6 (Ribotype-027)): 0.125 µg/mL (≈ 0.162 µM) | MIC ([14]; read-out: minimum inhibitory concentration (MIC), C. difficile CD-10(Ribotype-027)): 0.125 µg/mL (≈ 0.162 µM) | MIC ([14]; read-out: minimum inhibitory concentration (MIC), C. difficile CD-12): 0.125 µg/mL (≈ 0.162 µM) | MIC ([14]; read-out: minimum inhibitory concentration (MIC), C. difficile CD-13): 0.06 µg/mL (≈ 0.0778 µM) | MIC ([14]; read-out: minimum inhibitory concentration (MIC), C. difficile CD-15): 0.06 µg/mL (≈ 0.0778 µM) | MIC ([14]; read-out: minimum inhibitory concentration (MIC), C. difficile CD-22): 0.125 µg/mL (≈ 0.162 µM) | MIC ([14]; read-out: minimum inhibitory concentration (MIC), C. difficile CD-23): 0.06 µg/mL (≈ 0.0778 µM) | MIC ([14]; read-out: minimum inhibitory concentration (MIC), C. difficile CD-24): 0.125 µg/mL (≈ 0.162 µM) | MIC ([14]; read-out: minimum inhibitory concentration (MIC), C. difficile CD-26 (Ribotype-027)): 0.125 µg/mL (≈ 0.162 µM) | MIC ([14]; read-out: minimum inhibitory concentration (MIC), C. difficile CD-28): 0.03 µg/mL (≈ 0.0389 µM) | MIC ([14]; read-out: minimum inhibitory concentration (MIC), C. difficile CD-29 (Ribotype-027)): 0.06 µg/mL (≈ 0.0778 µM) | MIC ([14]; read-out: minimum inhibitory concentration (MIC), C. difficile CD-30): 0.125 µg/mL (≈ 0.162 µM) | MIC ([14]; read-out: minimum inhibitory concentration (MIC), C. difficile NR-49302): 0.06 µg/mL (≈ 0.0778 µM) | MIC ([14]; read-out: minimum inhibitory concentration (MIC), C. difficile NR-49304): 0.06 µg/mL (≈ 0.0778 µM) | MIC ([14]; read-out: minimum inhibitory concentration (MIC), C. difficile NR-49308): 0.125 µg/mL (≈ 0.162 µM) | MIC ([14]; read-out: minimum inhibitory concentration (MIC), C. difficile NR-49319): 0.06 µg/mL (≈ 0.0778 µM) | MIC50 [14]: 0.06 µg/mL (≈ 0.0778 µM) | MIC [15]: ≤ 2 µg/mL
